{
  "source": "patent US6881747B2",
  "about": "“Small molecules for inhibition of function and drug delivery to leukocytes” (Science & Technology Corporation @UNM, priority 2002, dated 2005)",
  "note": "pKd: −log10 of the molar value.",
  "data": [
    {"biological_target": "LFA-1 (Homo sapiens, UniProt P20701)", "sequence (P20701 26-1170)": "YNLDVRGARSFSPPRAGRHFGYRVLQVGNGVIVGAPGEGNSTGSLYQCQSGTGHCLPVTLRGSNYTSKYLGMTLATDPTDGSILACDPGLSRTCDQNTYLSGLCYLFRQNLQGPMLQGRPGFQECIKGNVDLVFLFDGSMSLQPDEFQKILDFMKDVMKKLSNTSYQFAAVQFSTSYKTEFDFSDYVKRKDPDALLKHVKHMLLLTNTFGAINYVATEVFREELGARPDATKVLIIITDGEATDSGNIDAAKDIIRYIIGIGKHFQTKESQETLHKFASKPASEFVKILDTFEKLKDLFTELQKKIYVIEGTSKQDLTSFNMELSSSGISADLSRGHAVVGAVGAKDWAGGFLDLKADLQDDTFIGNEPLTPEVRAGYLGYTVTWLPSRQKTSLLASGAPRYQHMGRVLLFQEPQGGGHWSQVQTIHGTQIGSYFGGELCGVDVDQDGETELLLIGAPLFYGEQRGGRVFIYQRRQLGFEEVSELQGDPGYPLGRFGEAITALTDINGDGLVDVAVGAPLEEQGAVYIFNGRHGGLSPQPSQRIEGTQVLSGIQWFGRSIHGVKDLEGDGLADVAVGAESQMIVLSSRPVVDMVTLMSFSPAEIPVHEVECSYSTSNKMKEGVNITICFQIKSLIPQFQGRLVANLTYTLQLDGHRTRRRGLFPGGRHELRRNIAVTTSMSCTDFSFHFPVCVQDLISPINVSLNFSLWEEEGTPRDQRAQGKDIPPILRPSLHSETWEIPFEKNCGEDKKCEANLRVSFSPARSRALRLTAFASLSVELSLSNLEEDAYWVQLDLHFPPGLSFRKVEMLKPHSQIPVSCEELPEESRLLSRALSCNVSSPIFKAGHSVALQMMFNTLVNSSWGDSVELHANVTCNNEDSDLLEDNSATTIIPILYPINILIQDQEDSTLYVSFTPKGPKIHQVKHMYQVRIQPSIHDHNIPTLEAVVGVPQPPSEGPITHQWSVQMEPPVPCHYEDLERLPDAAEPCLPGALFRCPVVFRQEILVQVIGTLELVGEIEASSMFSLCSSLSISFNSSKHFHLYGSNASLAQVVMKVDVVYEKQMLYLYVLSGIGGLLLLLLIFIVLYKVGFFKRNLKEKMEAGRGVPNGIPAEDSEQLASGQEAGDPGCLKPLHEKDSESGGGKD", "sequence (P05107 23-769 partner)": "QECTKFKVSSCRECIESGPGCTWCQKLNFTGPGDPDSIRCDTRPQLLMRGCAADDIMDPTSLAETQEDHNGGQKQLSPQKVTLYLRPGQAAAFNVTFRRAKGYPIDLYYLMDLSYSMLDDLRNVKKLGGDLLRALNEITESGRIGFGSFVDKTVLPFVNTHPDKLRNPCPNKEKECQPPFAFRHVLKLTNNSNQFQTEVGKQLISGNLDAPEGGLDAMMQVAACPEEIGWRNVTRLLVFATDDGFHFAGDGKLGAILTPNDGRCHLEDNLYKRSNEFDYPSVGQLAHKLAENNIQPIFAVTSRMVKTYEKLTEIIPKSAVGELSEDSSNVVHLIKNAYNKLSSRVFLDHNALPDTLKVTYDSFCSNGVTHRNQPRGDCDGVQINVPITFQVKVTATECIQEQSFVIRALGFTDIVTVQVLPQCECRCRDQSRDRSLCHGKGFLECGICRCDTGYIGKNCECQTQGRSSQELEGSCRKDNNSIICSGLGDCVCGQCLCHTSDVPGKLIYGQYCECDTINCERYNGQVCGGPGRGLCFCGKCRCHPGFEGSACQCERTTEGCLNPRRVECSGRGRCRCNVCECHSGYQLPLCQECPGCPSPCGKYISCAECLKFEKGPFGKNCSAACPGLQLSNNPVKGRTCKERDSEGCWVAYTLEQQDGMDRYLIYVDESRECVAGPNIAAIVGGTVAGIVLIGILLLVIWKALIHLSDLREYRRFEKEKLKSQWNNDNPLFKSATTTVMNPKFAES", "test": "Affinity (KD) of derivatives for LFA-1", "format": "binding", "settings": "affinity for LFA-1; read-out: KD (Affinity constant)", "values": [
      {"compound": "CN1C(=O)N(c2cc(Cl)cc(Cl)c2)C(=O)[C@H]1Cc1ccccc1", "note": "[JEB I-22]", "pKd": 5.91},
      {"compound": "C[C@@]1(Cc2ccc(Br)cc2)C(=O)N(c2cc(Cl)cc(Cl)c2)C(=O)N1CCCCN", "note": "[Butylamino- Nor-BIRT, 1-(4-aminobutyl)-5-(4-bromobenzyl)-3-(3,5-dichlorophenyl)-5-methyl-imidazolidine-2,4-dione]", "pKd": 7.12},
      {"compound": "CN1C(=O)N(c2cc(Cl)cc(Cl)c2)C(=O)[C@@H]1Cc1ccccc1", "note": "[JEB I-24]", "pKd": 5.92},
      {"compound": "5-(4-bromobenzyl)-3-(3,5-dichlorophenyl)-5-methyl-imidazolidine-2,4-dione-1-(1-butyl-4-fluoresceincarbamide) [Fluorescein- Butylamino- Nor-BIRT]", "pKd": 6.94},
      {"compound": "O=C1N[C@@H](Cc2ccccc2)C(=O)N1c1cc(Cl)cc(Cl)c1", "note": "[JEB I-18]", "pKd": 5.44},
      {"compound": "O=C1N[C@H](Cc2ccccc2)C(=O)N1c1cc(Cl)cc(Cl)c1", "note": "[JEB I-19]", "pKd": 6.21}
    ]}
  ]
}
